Experimental data reported in PubChem BioAssay (NCI).
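Assay format: 96-well plates, 48-hour exposure. TGI: concentration producing complete growth inhibition.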

Legend:
Assay in all cases: growth of human tumour cells (NCI), 48 h
NCI-H23 lung = system: NCI-H23 lung
NCI/ADR-RES ovarian = system: NCI/ADR-RES ovarian
T-47D breast = system: T-47D breast
A549 NSCLC = system: A549 NSCLC
HOP-92 NSCLC = system: HOP-92 NSCLC
UACC-62 melanoma = system: UACC-62 melanoma
UO-31 renal = system: UO-31 renal
NCI-H460 lung = system: NCI-H460 lung
TK-10 renal = system: TK-10 renal
SK-OV-3 ovarian = system: SK-OV-3 ovarian
EKVX NSCLC = system: EKVX NSCLC
ACHN renal = system: ACHN renal
NCI-H226 lung = system: NCI-H226 lung
SK-MEL-5 melanoma = system: SK-MEL-5 melanoma
SK-MEL-28 melanoma = system: SK-MEL-28 melanoma
MOLT-4 leukemia = system: MOLT-4 leukemia
A498 renal = system: A498 renal
CAKI-1 renal = system: CAKI-1 renal
SF-539 CNS = system: SF-539 CNS
OVCAR-4 ovarian = system: OVCAR-4 ovarian
MALME-3M melanoma = system: MALME-3M melanoma
HL-60(TB) leukemia = system: HL-60(TB) leukemia
MCF7 breast = system: MCF7 breast
HCT-15 colon = system: HCT-15 colon
HOP-62 NSCLC = system: HOP-62 NSCLC
OVCAR-8 ovarian = system: OVCAR-8 ovarian
UACC-257 melanoma = system: UACC-257 melanoma
K-562 leukemia = system: K-562 leukemia
SW-620 colon = system: SW-620 colon
SK-MEL-2 melanoma = system: SK-MEL-2 melanoma
OVCAR-5 ovarian = system: OVCAR-5 ovarian
NCI-H522 lung = system: NCI-H522 lung
SNB-19 CNS = system: SNB-19 CNS
MDA-MB-435 = system: MDA-MB-435
CCRF-CEM leukemia = system: CCRF-CEM leukemia
SF-295 CNS = system: SF-295 CNS
BT-549 breast = system: BT-549 breast
U251 CNS = system: U251 CNS
SNB-75 CNS = system: SNB-75 CNS
COLO 205 colon = system: COLO 205 colon
KM12 colon = system: KM12 colon
SF-268 CNS = system: SF-268 CNS
HT29 colon = system: HT29 colon
HS 578T breast = system: HS 578T breast
SR leukemia = system: SR leukemia
DU-145 prostate = system: DU-145 prostate
PC-3 prostate = system: PC-3 prostate
LOX IMVI melanoma = system: LOX IMVI melanoma
SN12C renal = system: SN12C renal
786-0 renal = system: 786-0 renal
HCT-116 colon = system: HCT-116 colon
M14 melanoma = system: M14 melanoma
MDA-MB-231 breast = system: MDA-MB-231 breast
MDA-N = system: MDA-N
OVCAR-3 ovarian = system: OVCAR-3 ovarian
IGROV1 ovarian = system: IGROV1 ovarian
RPMI-8226 leukemia = system: RPMI-8226 leukemia
RXF 393 renal = system: RXF 393 renal

Compound: COc1cc(C(O)CCBr)c(OC)cc1C (configuration not stated)
- TGI (NCI-H23 lung): > 100 µM
- TGI (NCI/ADR-RES ovarian): > 57.6 µM
- TGI (T-47D breast): > 100 µM
- TGI (A549 NSCLC): > 100 µM
- TGI (HOP-92 NSCLC): > 100 µM
- TGI (UACC-62 melanoma): 50.8 µM
- TGI (UO-31 renal): > 100 µM
- TGI (NCI-H460 lung): > 100 µM
- TGI (TK-10 renal): > 100 µM
- TGI (SK-OV-3 ovarian): > 73.6 µM
- TGI (EKVX NSCLC): > 100 µM
- TGI (ACHN renal): > 100 µM
- TGI (NCI-H226 lung): > 100 µM
- TGI (SK-MEL-5 melanoma): > 38 µM
- TGI (SK-MEL-28 melanoma): > 100 µM
- TGI (MOLT-4 leukemia): > 100 µM
- TGI (A498 renal): > 100 µM
- TGI (CAKI-1 renal): > 100 µM
- TGI (SF-539 CNS): 31.3 µM
- TGI (OVCAR-4 ovarian): > 100 µM
- TGI (MALME-3M melanoma): > 100 µM
- TGI (HL-60(TB) leukemia): > 100 µM
- TGI (MCF7 breast): 54.7 µM
- TGI (HCT-15 colon): > 100 µM
- TGI (HOP-62 NSCLC): > 93.5 µM
- TGI (OVCAR-8 ovarian): > 46.8 µM
- TGI (UACC-257 melanoma): > 100 µM
- TGI (K-562 leukemia): > 100 µM
- TGI (SW-620 colon): > 100 µM
- TGI (SK-MEL-2 melanoma): 68.2 µM
- TGI (OVCAR-5 ovarian): > 100 µM
- TGI (NCI-H522 lung): > 66.3 µM
- TGI (SNB-19 CNS): > 100 µM
- TGI (MDA-MB-435): > 42.6 µM
- TGI (CCRF-CEM leukemia): > 52.7 µM
- TGI (SF-295 CNS): > 73.1 µM
- TGI (BT-549 breast): > 84.4 µM
- TGI (U251 CNS): > 100 µM
- TGI (SNB-75 CNS): > 100 µM
- TGI (COLO 205 colon): > 57 µM
- TGI (KM12 colon): > 86.7 µM
- TGI (SF-268 CNS): > 100 µM
- TGI (HT29 colon): > 58.3 µM
- TGI (HS 578T breast): > 89.4 µM
- TGI (SR leukemia): > 31.6 µM
- TGI (DU-145 prostate): > 100 µM
- TGI (PC-3 prostate): > 73 µM
- TGI (LOX IMVI melanoma): > 100 µM
- TGI (SN12C renal): > 100 µM
- TGI (786-0 renal): > 100 µM
- TGI (HCT-116 colon): > 100 µM
- TGI (M14 melanoma): 33.9 µM
- TGI (MDA-MB-231 breast): > 72.7 µM
- TGI (MDA-N): > 20.9 µM
- TGI (OVCAR-3 ovarian): 44.1 µM
- TGI (IGROV1 ovarian): > 100 µM
- TGI (RPMI-8226 leukemia): > 100 µM
- TGI (RXF 393 renal): > 100 µM

Compound: CC1(C)CC(C2=NCCO2)CC(C)(C)N1
- TGI (NCI-H23 lung): > 100 µM
- TGI (NCI/ADR-RES ovarian): > 100 µM
- TGI (T-47D breast): > 100 µM
- TGI (A549 NSCLC): > 100 µM
- TGI (HOP-92 NSCLC): > 100 µM
- TGI (UACC-62 melanoma): > 100 µM
- TGI (UO-31 renal): > 100 µM
- TGI (TK-10 renal): > 100 µM
- TGI (SK-OV-3 ovarian): > 100 µM
- TGI (EKVX NSCLC): > 100 µM
- TGI (ACHN renal): > 100 µM
- TGI (NCI-H226 lung): > 100 µM
- TGI (SK-MEL-5 melanoma): > 100 µM
- TGI (SK-MEL-28 melanoma): > 100 µM
- TGI (MOLT-4 leukemia): > 100 µM
- TGI (A498 renal): > 100 µM
- TGI (CAKI-1 renal): > 100 µM
- TGI (SF-539 CNS): > 100 µM
- TGI (OVCAR-4 ovarian): > 100 µM
- TGI (MALME-3M melanoma): > 100 µM
- TGI (HL-60(TB) leukemia): > 100 µM
- TGI (MCF7 breast): 61.1 µM
- TGI (HCT-15 colon): > 100 µM
- TGI (HOP-62 NSCLC): > 100 µM
- TGI (OVCAR-8 ovarian): > 100 µM
- TGI (UACC-257 melanoma): > 100 µM
- TGI (K-562 leukemia): > 100 µM
- TGI (SK-MEL-2 melanoma): > 100 µM
- TGI (OVCAR-5 ovarian): > 100 µM
- TGI (SNB-19 CNS): > 100 µM
- TGI (MDA-MB-435): > 100 µM
- TGI (CCRF-CEM leukemia): > 100 µM
- TGI (SF-295 CNS): > 100 µM
- TGI (BT-549 breast): > 100 µM
- TGI (U251 CNS): > 100 µM
- TGI (SNB-75 CNS): > 100 µM
- TGI (COLO 205 colon): > 100 µM
- TGI (SF-268 CNS): > 100 µM
- TGI (HT29 colon): > 100 µM
- TGI (HS 578T breast): > 100 µM
- TGI (SR leukemia): > 100 µM
- TGI (DU-145 prostate): > 100 µM
- TGI (PC-3 prostate): > 100 µM
- TGI (LOX IMVI melanoma): > 100 µM
- TGI (SN12C renal): > 100 µM
- TGI (786-0 renal): > 100 µM
- TGI (HCT-116 colon): > 100 µM
- TGI (M14 melanoma): > 100 µM
- TGI (MDA-MB-231 breast): > 100 µM
- TGI (MDA-N): > 100 µM
- TGI (OVCAR-3 ovarian): > 100 µM
- TGI (IGROV1 ovarian): > 100 µM
- TGI (RPMI-8226 leukemia): > 100 µM
- TGI (RXF 393 renal): > 100 µM
